In experiment [1] the test system is human prostate cancer cells LNCaP. Description: Cell viability inhibition assay (CTG) on LNCaP cells in presence of DHT. The note with it: read-out: Inhibitory activity against human prostate cancer cell LNCaP IC50. The format is cell-based. The text has this: Human prostate cancer cells LNCaP and human prostate cancer cells 22Rvl are present in patients with prostate cancer. An androgen, DHT, is able to promote the growth of human prostate cancer cells LNCaP. Using the cell model described above was intended to study the inhibitory effects of the compounds of the present disclosure on the growth of human prostate cancer cells (human prostate cancer cells LNCaP and human prostate cancer cells 22Rvl) in the presence or absence of DHT.
The medium in the culture dish was discarded, and 5 mL of trypsin was added for digestion for about 3 mins. The digestion was stopped by adding 10 mL of a fresh medium. The cells were fully pipetted and transferred to a 15 mL centrifuge tube, and the cells were collected by centrifugation at 1000 rpm for 5 mins. The cells collected by centrifugation were resuspended in 11 mL of a fresh medium. 1 mL of the cells was taken and counted, and the cell viability was detected. The cell density was adjusted to 1×10^4 cells/mL by adding an appropriate amount of the medium. The cells were seeded in a 96-well plate at 200 µL/well, and the plate was incubated overnight in a cell incubator.
After the cells were attached to the well, for the human prostate cancer cells LNCaP group, test compounds (0.1 μM, 0.3 μM, 1 μM, 3 μM, 10 μM, and 30 μM) and DHT (1 nM, inducing the expression of AR) were added to the 96-well plate, and the plate was incubated for another 5 days; for the human prostate cancer cells 22Rvl group, test compounds (0.1 μM, 0.3 μM, 1 μM, 3 μM, 10 μM, and 30 μM) were added to the 96-well plate, and the plate was incubated for another 5 days. […] The 96-well plate was equilibrated at room temperature for 30 mins. The cell viability was detected by using a CTG method. Before detection, CellTiter-Glo® Buffer and a substrate thereof (collectively called CTG reagent) were thawed and equilibrated to room temperature. Then, […] of Buffer was gently mixed with the substrate to form a homogeneous solution. The homogeneous solution was added to the 96-well plate at 100 µL/well, and the 96-well plate was incubated on a shaker for 15 mins. The fluorescence value in each well was then detected. The detection method for the fluorescence value in each well was as follows: after adding the CTG reagent, luminescence detection (integration time: 500 ms) was performed by using a correspondingly equipped multi-mode microplate reader (M200Pro, TECAN, Switzerland) according to the supplier's manual to quantify the effect of the inhibitor on the cell viability. For data analysis, an assay background value was subtracted from all data points, which was determined in wells containing the medium but no cells. Data were processed using the XLfit software (XLfit 5.2., IDBS, UK), and IC50 values of the test compounds were calculated.

In experiment [2] the target is T1, AR protein expression in human prostate cancer cells LNCaP (Homo sapiens, UniProt P10275, T878A).
T1 sequence (P10275 1-920 T878A): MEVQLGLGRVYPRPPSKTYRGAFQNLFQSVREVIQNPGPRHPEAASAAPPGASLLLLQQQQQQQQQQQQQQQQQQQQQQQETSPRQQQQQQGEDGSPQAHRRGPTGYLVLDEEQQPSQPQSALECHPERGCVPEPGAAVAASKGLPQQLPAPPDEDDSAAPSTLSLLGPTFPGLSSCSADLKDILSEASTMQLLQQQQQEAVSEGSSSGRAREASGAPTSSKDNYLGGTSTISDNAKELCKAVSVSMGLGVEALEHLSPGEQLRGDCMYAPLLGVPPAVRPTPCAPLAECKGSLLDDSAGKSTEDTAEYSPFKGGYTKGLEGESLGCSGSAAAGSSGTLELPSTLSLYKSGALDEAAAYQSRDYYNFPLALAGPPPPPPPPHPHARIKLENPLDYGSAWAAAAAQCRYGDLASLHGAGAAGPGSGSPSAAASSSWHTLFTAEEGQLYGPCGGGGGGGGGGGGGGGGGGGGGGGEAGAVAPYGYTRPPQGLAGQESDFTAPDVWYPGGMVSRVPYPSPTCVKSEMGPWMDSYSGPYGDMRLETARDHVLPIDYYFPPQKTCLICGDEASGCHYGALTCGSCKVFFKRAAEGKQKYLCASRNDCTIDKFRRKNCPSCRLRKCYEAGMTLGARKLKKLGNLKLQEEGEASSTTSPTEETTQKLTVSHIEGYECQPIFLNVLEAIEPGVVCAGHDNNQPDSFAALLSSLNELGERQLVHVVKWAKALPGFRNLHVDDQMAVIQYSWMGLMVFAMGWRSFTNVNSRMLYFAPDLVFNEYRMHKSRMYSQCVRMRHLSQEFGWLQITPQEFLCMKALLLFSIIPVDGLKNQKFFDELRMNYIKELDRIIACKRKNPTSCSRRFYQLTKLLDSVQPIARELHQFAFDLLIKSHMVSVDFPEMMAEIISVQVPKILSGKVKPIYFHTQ
The experiment in a line: Reduction of AR protein expression in LNCaP cells (Western blot, with DHT). The note with it: 1 nM DHT; for anti-AR activity (in words): Western blot; for AR reduction percentage: 2.5 μmol/L compound; for AR reduction percentage / Relative potency (anti-AR activity): 48 h; for Relative potency (anti-AR activity): concentration basis not given. The format is cell-based. The protocol:
The term “anti-AR activity” refers to the ability of the compound of the present disclosure to reduce AR expression in human prostate cancer cells LNCaP, and the ability of the compound of the present disclosure to reduce AR expression is expressed in AR reduction percentage (%) herein. […] The AR reduction percentage (%) is calculated as follows: AR reduction percentage (%)=(AR in DHT group/GAPDH value−AR in test compound group/GAPDH value)/AR in DHT group/GAPDH value×100%.
AR is a key factor for regulating the response of prostate cancer cells to androgens. AR is also a key factor for the response of hair follicles or tissues around the hair follicles to androgens, and the reduction of the AR content not only can down-regulate the growth of the prostate cancer cells, but also can inhibit androgenetic alopecia. This test example is to test the effects of the compounds of the present disclosure on the reduction of AR protein expression in human prostate cancer cells LNCaP in the presence of DHT. The compounds of the present disclosure were analyzed for anti-AR activity in human prostate cancer cells LNCaP by measuring the reduction of AR protein using the Western blot method.
Human prostate cancer cells LNCaP were seeded in a 6-well plate at 4×10^5 cells/mL and at a volume of 2 mL per well. The plate was incubated overnight in a cell incubator. DMSO and dihydrotestosterone (DHT, 1 nM) were used as control groups. Assays were performed in the presence of dihydrotestosterone (DHT, 1 nM). After incubating with the test compounds for a specified time, the cells were collected and dissolved according to the Western blot technique known in the biochemical art. A DMSO group, a DHT group (1 nM) and test compound groups (containing 1 nM DHT) were set during the assay. DMSO and DHT (1 nM DHT) were added to 6-well plates corresponding to the DMSO group and the DHT group, respectively. […] The protein concentration was quantified using the BCA kit, and then the samples were stored for later use.
The content of the AR protein in each group was determined by using Western Blot, and the loading amount of the sample in each group was […]. Western blot analysis has been disclosed in the prior art. Specifically, the cells were collected in 2× sodium dodecyl sulfate/polyacrylamide gel electrophoresis loading buffer or in radioimmunoprecipitation assay (RIPA) buffer strengthened with 10 μg/mL benzamidine, 10 μg/mL trypsin inhibitor, and 1 mM phenylmethylsulfonyl fluoride. A sample of total protein (about 40 μg) from each cell lysate was separated by electrophoresis on an SDS/PAGE gel. After separation by electrophoresis, the proteins were transferred from the gel to a nitrocellulose membrane following the standard procedures. The membrane was then incubated with 10% non-fat milk in phosphate-buffered saline supplemented with 0.1% Tween 20 (PBST) for 1 h, followed by incubation with a primary human AR-specific antibody (purchased from BD-Harlingen) at 4° C. overnight. After incubation, the membrane was washed 3 times with PBST buffer, each for 10 mins. An alkaline phosphatase-conjugated secondary antibody was then added, and the membrane was incubated at room temperature for 1 h. After the secondary incubation, the membrane was washed again with PBST, and the AR protein signal in the membrane was visualized by adding an alkaline phosphatase medium, bromochloroindolyl phosphate, and nitrotetrazole to the membrane. To ensure that an equal amount of protein from each sample was analyzed, a portion of the membrane was kept with a specific antibody for the regulatory protein GAPDH (Santa Cruz Biotechnology), and the GAPDH signal was visualized with the secondary antibody described above. The protein signal intensity (as indicated by color bands on the membrane) was measured using a densitometer and analyzed by the NIH Image J software (NIH1.33).

The mark [3] stands for this setting: Homo sapiens, 120 h, 1 nM DHT, 5 days, CTG.

The results in this text go back to patent publication US20250295609A1, “COMPOUND HAVING ANTI-ANDROGEN RECEPTOR ACTIVITY, AND USE THEREOF” (NANJING MINOVA PHARMACEUTICAL CO., LTD., priority 2022, published 2025).

The structures appear in SMILES notation. Where a name gives a salt, the structure may show the parent alone. Read-outs that look alike come from different tables or passages of the source.

`[2H]C([2H])([2H])Oc1ccc(/C=C/C(=O)C2(C(=O)/C=C/c3ccc(OC([2H])([2H])[2H])c(OC([2H])([2H])[2H])c3)CC2)cc1OC([2H])([2H])[2H]` [Compound 1]: in experiment [1] (Homo sapiens, 120 h), the IC50 (as a rule, the concentration needed to halve the response being measured) is 1710 nM.

In the case of `[2H]C([2H])([2H])Oc1ccc(/C=C/C(=O)C2(C(=O)/C=C/c3ccc(OC([2H])([2H])[2H])c(OC([2H])([2H])[2H])c3)CCC2)cc1OC([2H])([2H])[2H]` [Compound 2], in experiment [1] (Homo sapiens, 120 h), the IC50 was 1820 nM.

`[2H]C([2H])([2H])Oc1ccc(/C=C/C(=O)C2(C(=O)/C=C/c3ccc(OC([2H])([2H])[2H])c(OC([2H])([2H])[2H])c3)CCCC2)cc1OC([2H])([2H])[2H]` [Compound 3]: the IC50 in experiment [1] (Homo sapiens, 120 h) was 1750 nM.

Regarding `COc1ccc(/C=C/C(=O)C2(C(=O)/C=C/c3ccc(OC)c(OC)c3)CC3(CC3)C2)cc1OC` [Compound 5], in experiment [1] (Homo sapiens, 120 h), the 50% inhibitory concentration (IC50) came to 5480 nM.

As to `[2H]C([2H])([2H])Oc1ccc(/C=C/C(=O)C2(C(=O)/C=C/c3ccc(OC([2H])([2H])[2H])c(OC([2H])([2H])[2H])c3)C([2H])([2H])C2([2H])[2H])cc1OC([2H])([2H])[2H]` [Compound 6], the IC50 in experiment [1] (Homo sapiens, 120 h) was 2560 nM.

With `COc1ccc(/C=C/C(=O)C2(C(=O)/C=C/c3ccc(OC)c(OC)c3)COC(=O)OC2)cc1OC` [Compound 9], in experiment [1] (Homo sapiens, 120 h), the IC50 is 3310 nM.

For `COc1ccc(/C=C/C(=O)C2(C(=O)/C=C/c3ccc(OC)c(OC)c3)CCC3(CC2)OCCO3)cc1OC` [Compound 11], in experiment [1] (setting [3]), the IC50 came out at 980 nM.

Regarding `COc1ccc(/C=C/C(=O)C2(C(=O)/C=C/c3ccc(OC)c(OC)c3)CCC(N3CCOCC3)CC2)cc1OC` [Compound 12 hydrochloride], in experiment [2], the “anti-AR activity (in words)” value is on record as “significant anti-AR activities”, the AR reduction percentage stood at 86.2% and the “Relative potency (anti-AR activity)” value is “++++++ (75 < * ≤ 100)”. Also, the IC50 in experiment [1] (1 nM DHT, 5 days, CTG, listed as 12 hydrochloride) came to 450 nM.

`COc1ccc(/C=C/C(=O)C2(C(=O)/C=C/c3ccc(OC)c(OC)c3)CCC(N3CCOCC3)CC2)cc1OC` [Compound 12]: the IC50 in experiment [1] (1 nM DHT, 5 days, CTG) came to 1290 nM.

For `COc1ccc(/C=C/C(=O)C2(C(=O)/C=C/c3ccc(OC)c(OC)c3)CCC(O)CC2)cc1OC` [Compound 13], in experiment [1] (setting [3]), the IC50 stood at 950 nM.

Turning to `CCN(CC)C1CCC(C(=O)/C=C/c2ccc(OC)c(OC)c2)(C(=O)/C=C/c2ccc(OC)c(OC)c2)CC1` [Compound 16 hydrochloride], in experiment [1] (Homo sapiens, 120 h), the IC50 stood at 370 nM.

Take `COc1ccc(/C=C/C(=O)C2(C(=O)/C=C/c3ccc(OC)c(OC)c3)CCC(N3CCC(F)(F)CC3)CC2)cc1OC` [Compound 18 hydrochloride]: in experiment [1] (setting [3]), the IC50 was 610 nM.

Regarding `COc1ccc(/C=C/C(=O)C2(C(=O)/C=C/c3ccc(OC)c(OC)c3)CCC(N3CCCCC3)CC2)cc1OC` [Compound 19 hydrochloride], in experiment [2], the “anti-AR activity (in words)” value is “significant anti-AR activities”, the AR reduction percentage is listed as 81.4% and the “Relative potency (anti-AR activity)” value is listed as “++++++ (75 < * ≤ 100)”. In addition, in experiment [1] (setting [3]), the IC50 stood at 350 nM.

On to `COc1ccc(/C=C/C(=O)C2(C(=O)/C=C/c3ccc(OC)c(OC)c3)CC=C(F)CC2)cc1OC` [Compound 22], for which, in experiment [1] (setting [3]), the IC50 came to 3140 nM.

As to `COc1ccc(/C=C/C(=O)C2(C(=O)/C=C/c3ccc(OC)c(OC)c3)CCC(NC3CC(F)(F)C3)CC2)cc1OC` [Compound 23 hydrochloride], in experiment [1] (setting [3]), the IC50 came to 620 nM.

As to `COc1ccc(/C=C/C(=O)C2(C(=O)/C=C/c3ccc(OC)c(OC)c3)CCN(S(C)(=O)=O)CC2)cc1OC` [Compound 24], the IC50 in experiment [1] (Homo sapiens, 120 h) was determined as 610 nM.

Regarding `COc1ccc(/C=C/C(=O)C2(C(=O)/C=C/c3ccc(OC)c(OC)c3)CCN(C(=O)OC(C)(C)C)CC2)cc1OC` [Compound 25], the IC50 in experiment [1] (Homo sapiens, 120 h) is 1370 nM.

For the compound `COc1ccc(/C=C/C(=O)C2(C(=O)/C=C/c3ccc(OC)c(OC)c3)CCC3(CC3)CC2)cc1OC` [Compound 26], the IC50 in experiment [1] (Homo sapiens, 120 h) was found to be 620 nM.
